From ChEMBL document CHEMBL1201862, “PubChem BioAssay data set” (2004) come the findings set out here.

The structures appear in SMILES notation. Calls of active or inactive are those of the source.

Assay [1] can be described thus: P. falciparum blood-stage growth inhibition, dose response, NF54 strain, plate reader, dry powder (AID 651889). Format: functional, cell-based.
The nature of assay [2]: L-6 rat myoblast cytotoxicity, dose response, counter-screen for T. cruzi inhibitor project, cell-based, plate reader, dry powder (AID 651895). Type of assay: functional. (In general: Counterscreens check selectivity or assay interference.)
Assay [3] in a line: T. cruzi growth inhibition in host cells, dose response, cell-based, plate reader, dry powder, set 2 (AID 652275). Type of assay: functional.
Assay [4] is described as follows: growth inhibition of intracellular T. cruzi, dose response, cell-based, plate reader, dry powder samples (AID 651845). Type of assay: functional.
Assay [5] in a line: T. cruzi intracellular amastigote growth inhibition, dose response, imaging, CA-I/72 strain, bovine embryo skeletal muscle, dry powder (AID 651885). Format: functional, cell-based.
Assay [6] in a line: L. donovani amastigote growth inhibition, dose response, axenic amastigotes, plate reader, dry powder (AID 651892). Format: functional, cell-based.
Assay [7] is described as follows: T. cruzi amastigote growth inhibition, dose response, Tulahuen strain, L-6 host cells, dry powder (AID 651890). Type of assay: functional, cell-based.
Assay [8] in a line: T. b. rhodesiense proliferation inhibition, dose response, STIB900 strain, plate reader, dry powder (AID 651894). Type of assay: functional, cell-based.
Assay [9] in a line: P. falciparum 3D7-ScDHODH growth inhibitors, dose response, SYBR Green, dry powder samples (AID 1159570).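 Note: parasite growth measured after 72 hours of compound exposure.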 Type of assay: functional, cell-based.
Assay [10] in a line: HepG2 cell cytotoxicity, dose response, cytotoxicity control, plate reader, dry powder samples (AID 1159569).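 Note: inhibitor potency with signal falling toward the positive control level.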 Format: functional, cell-based.
Assay [11] in a line: P. falciparum Dd2 growth inhibitors, dose response, SYBR Green, cherry-picked samples (AID 1159567). Type of assay: functional, cell-based.
The nature of assay [12]: P. falciparum Dd2 growth inhibitors, dose response, SYBR Green, dry powder samples (AID 1159566).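 Note: potency for growth inhibition with lower SYBR green DNA signal.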 Type of assay: functional, cell-based.
The nature of assay [13]: HepG2 cell cytotoxicity, dose response, cytotoxicity control, cherry-picked samples (AID 1159577). Format: functional, cell-based.
Assay [14] in a line: P. falciparum ATP4 D1247Y mutant growth inhibitors, dose response, NITD609-resistant line, SYBR Green, dry powder (AID 1159571).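 Note: parasites synchronized at ring stage by sorbitol before testing.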 Type of assay: functional, cell-based.
Assay [15] can be described thus: M. tuberculosis growth inhibition, HTS (AID 449762). Type of assay: functional.
Assay [16] can be described thus: inhibitors of intracellular T. cruzi replication, confirmation, NIH3T3 host cells, beta-gal luminescence (AID 2044).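 Note: intracellular parasites grown in NIH/3T3 mouse fibroblasts as host cells; luminescent beta-galactosidase reporter signal from transgenic T. cruzi replicating inside host cells; inhibitors lower the luminescence signal.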 Format: functional, cell-based.
Assay [17] is described as follows: microbe, parasite or virus in culture. Type of assay: functional. The settings on record: Mycobacterium tuberculosis.
Assay [18] is described as follows: cytotoxicity toward NIH3T3 fibroblasts, dose response, counter-screen, cell-based, ATP luminescence, mouse fibroblasts (AID 2010).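 Note: cells exposed to compound for about 90 hours before reading.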 Format: functional.
A further assay addresses Cytochrome P450 3A4 (Homo sapiens, UniProt P08684).
The nature of assay [19]: Concentration-dependent survival of SW480 colon cancer line, luminescence detection with CellTiter-Glo, half-maximal inhibitory concentration (AID 1117338). Format: functional.
A short description of assay [20]: RKO cell viability reduction, dose response, CellTiter-Glo luminescence (AID 1117322). Type of assay: functional. Background: In ATP-based viability assays light output follows the ATP content of the culture.
A short description of assay [21]: cytotoxicity toward HCT116 cells – cell-based, CellTiter-Glo luminescence, IC50, dose response (AID 1117332). Type of assay: functional. The settings on record: HCT-116.
The nature of assay [22]: SNU-C1 cell viability reduction, dose response, CellTiter-Glo luminescence (AID 1117323). Format: functional, cell-based.
Assay [23] is described as follows: cytotoxicity toward Colo320 cells – cell-based, CellTiter-Glo luminescence, IC50, dose response (AID 1117334). Format: functional. The note with it: COLO 320.
Assay [24] can be described thus: cytotoxicity toward HT-29 cells – cell-based, CellTiter-Glo luminescence, IC50, dose response (AID 1117330). Type of assay: functional.
Assay [25] in a line: CellTiter-Glo luminescent dose response of DLD-1 viability loss (AID 1117352). Type of assay: functional.
Assay [26] is described as follows: HCT116 cell viability decrease, GSK3B pretreatment – CellTiter-Glo, IC50, dose response (AID 1117339). Type of assay: functional. The settings on record: HCT-116.
In assay [27] the target is 5-hydroxytryptamine receptor 1A (Homo sapiens, UniProt P08908). Type of assay: functional.
Sequence of 5-hydroxytryptamine receptor 1A (P08908 whole entry): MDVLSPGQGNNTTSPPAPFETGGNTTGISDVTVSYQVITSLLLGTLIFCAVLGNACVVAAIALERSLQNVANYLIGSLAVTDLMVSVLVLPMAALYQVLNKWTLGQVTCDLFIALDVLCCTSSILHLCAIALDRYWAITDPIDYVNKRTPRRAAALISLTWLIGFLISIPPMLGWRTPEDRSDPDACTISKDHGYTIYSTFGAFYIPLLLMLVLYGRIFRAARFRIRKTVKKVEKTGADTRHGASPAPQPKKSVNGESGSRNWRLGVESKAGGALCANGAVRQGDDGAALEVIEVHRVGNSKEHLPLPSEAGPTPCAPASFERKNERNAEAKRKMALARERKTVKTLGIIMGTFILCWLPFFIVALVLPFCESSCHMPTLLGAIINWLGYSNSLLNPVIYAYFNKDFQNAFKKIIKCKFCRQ
The target in assay [28] is Sphingosine 1-phosphate receptor 2 (Homo sapiens, UniProt O95136). Kind of assay: Dose Response Cell Based Assay for Agonists of the S1P2 Receptor. [Related pubchem assays: 729, 736, 843 ]. Format: functional.
Sequence of Sphingosine 1-phosphate receptor 2 (O95136 whole entry): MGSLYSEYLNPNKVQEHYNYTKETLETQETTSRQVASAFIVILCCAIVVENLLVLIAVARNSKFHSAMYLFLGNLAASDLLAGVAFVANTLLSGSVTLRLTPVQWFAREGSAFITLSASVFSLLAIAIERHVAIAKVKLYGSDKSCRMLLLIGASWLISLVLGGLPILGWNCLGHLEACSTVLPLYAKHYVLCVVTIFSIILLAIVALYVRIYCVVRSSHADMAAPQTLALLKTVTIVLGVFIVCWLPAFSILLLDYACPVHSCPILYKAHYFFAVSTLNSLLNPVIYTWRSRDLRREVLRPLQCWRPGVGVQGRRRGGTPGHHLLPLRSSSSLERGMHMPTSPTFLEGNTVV
The target of assay [29] is T1, Short transient receptor potential channel 4 (Mus musculus, UniProt Q9QUQ5).
T1 sequence (Q9QUQ5 whole entry): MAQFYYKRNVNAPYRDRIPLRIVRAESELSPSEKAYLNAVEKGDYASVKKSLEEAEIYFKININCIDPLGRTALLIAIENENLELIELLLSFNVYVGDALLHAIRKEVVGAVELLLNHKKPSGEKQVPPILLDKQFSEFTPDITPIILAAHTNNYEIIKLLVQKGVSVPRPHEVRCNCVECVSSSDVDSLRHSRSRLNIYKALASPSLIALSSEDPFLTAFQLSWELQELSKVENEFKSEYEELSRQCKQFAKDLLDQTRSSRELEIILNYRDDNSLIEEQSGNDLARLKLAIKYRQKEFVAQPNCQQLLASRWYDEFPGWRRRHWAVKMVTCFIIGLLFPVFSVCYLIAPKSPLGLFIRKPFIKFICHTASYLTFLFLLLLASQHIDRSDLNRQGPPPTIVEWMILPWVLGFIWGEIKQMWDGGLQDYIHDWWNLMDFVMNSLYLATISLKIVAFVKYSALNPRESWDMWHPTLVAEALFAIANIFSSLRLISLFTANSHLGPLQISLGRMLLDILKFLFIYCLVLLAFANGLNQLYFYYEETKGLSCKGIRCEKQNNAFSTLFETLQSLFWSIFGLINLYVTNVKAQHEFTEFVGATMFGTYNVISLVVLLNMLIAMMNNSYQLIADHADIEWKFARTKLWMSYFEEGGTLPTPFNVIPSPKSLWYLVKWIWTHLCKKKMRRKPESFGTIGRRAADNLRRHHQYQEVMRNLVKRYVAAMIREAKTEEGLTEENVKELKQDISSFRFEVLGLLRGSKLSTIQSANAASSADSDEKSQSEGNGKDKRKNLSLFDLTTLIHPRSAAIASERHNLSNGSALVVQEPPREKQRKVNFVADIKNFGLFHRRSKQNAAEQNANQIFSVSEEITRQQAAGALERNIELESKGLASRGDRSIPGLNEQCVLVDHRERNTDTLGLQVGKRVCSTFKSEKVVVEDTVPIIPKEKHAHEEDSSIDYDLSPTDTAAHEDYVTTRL
Description: mouse TRPC4 channel activators, dose response, cell-based, HEK293 TRPC4/mu-opioid, Fluo-4 calcium (AID 434937). Format: functional.

In another assay the test system is H4. Description: Luminescence Cell-Based Dose Response HTS to Identify Activators of 5'UTR Stem-Loop Driven Prion Protein mRNA Translation in H4 Neuroglioblastoma Cells. [Related pubchem assays: 1829 (Project Summary), 1814 (Primary HTS)]. Type of assay: functional. The settings on record: Homo sapiens.
Assay [30] deals with Mitogen-activated protein kinase 10 (Homo sapiens, UniProt P53779). Kind of assay: Dose response biochemical screening assay for inhibitors of c-Jun N-Terminal Kinase 3 (JNK3). [Related pubchem assays: 746 ].
Sequence of Mitogen-activated protein kinase 10 (P53779 whole entry): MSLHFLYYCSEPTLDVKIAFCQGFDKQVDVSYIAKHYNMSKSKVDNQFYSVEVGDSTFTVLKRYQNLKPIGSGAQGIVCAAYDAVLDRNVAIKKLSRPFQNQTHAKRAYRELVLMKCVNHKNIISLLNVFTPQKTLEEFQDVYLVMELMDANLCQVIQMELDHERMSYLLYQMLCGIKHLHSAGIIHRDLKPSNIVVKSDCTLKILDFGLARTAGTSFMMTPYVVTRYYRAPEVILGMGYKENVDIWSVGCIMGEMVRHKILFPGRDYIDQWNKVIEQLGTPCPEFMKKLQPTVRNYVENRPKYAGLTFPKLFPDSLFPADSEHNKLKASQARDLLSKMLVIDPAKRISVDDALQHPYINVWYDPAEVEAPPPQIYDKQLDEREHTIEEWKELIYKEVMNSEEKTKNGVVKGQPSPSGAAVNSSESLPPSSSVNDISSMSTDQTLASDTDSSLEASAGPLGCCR
Assay [31] in a line: Luminescence Cell-Based Dose Retest to Confirm Inhibitors of Cancer Stem Cells. [Related pubchem assays (depositor defined):AID2717, AID2721]. Type of assay: functional. The note with it: Homo sapiens.
Assay [32] can be described thus: intracellular Trypanosoma cruzi inhibitors in host cells – cell-based, plate reader, cherry-pick samples, set 3, dose response (AID 651818).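 Note: compounds incubated with infected cells for about four days.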 Format: functional.
Assay [33] in a line: Luminescence Cell-Based Dose Confirmation HTS to Identify Activators of 5'UTR Stem-Loop Driven Alpha-Synuclein mRNA Translation in H4 Neuroglioblastoma Cells. [Related pubchem assays: 1829 (Project Summary), 1814 (Primary HTS)]. Type of assay: functional.
Assay [34] is described as follows: Luminescence Cell-Based Dose Response HTS to Identify Activators of Luciferase Translation or Activity in H4 […] Cells. [Related pubchem assays: 1829 (Project Summary), 1814 (Primary HTS)]. Format: functional.
In another assay the target is Ephrin type-A receptor 4 (Mus musculus, UniProt Q03137). Description: inhibitors of EphA4 binding to KYL peptide, primary screen, biochemical, colorimetric, mouse EphA4 (AID 689). Format: functional.
Sequence of Ephrin type-A receptor 4 (Q03137 whole entry): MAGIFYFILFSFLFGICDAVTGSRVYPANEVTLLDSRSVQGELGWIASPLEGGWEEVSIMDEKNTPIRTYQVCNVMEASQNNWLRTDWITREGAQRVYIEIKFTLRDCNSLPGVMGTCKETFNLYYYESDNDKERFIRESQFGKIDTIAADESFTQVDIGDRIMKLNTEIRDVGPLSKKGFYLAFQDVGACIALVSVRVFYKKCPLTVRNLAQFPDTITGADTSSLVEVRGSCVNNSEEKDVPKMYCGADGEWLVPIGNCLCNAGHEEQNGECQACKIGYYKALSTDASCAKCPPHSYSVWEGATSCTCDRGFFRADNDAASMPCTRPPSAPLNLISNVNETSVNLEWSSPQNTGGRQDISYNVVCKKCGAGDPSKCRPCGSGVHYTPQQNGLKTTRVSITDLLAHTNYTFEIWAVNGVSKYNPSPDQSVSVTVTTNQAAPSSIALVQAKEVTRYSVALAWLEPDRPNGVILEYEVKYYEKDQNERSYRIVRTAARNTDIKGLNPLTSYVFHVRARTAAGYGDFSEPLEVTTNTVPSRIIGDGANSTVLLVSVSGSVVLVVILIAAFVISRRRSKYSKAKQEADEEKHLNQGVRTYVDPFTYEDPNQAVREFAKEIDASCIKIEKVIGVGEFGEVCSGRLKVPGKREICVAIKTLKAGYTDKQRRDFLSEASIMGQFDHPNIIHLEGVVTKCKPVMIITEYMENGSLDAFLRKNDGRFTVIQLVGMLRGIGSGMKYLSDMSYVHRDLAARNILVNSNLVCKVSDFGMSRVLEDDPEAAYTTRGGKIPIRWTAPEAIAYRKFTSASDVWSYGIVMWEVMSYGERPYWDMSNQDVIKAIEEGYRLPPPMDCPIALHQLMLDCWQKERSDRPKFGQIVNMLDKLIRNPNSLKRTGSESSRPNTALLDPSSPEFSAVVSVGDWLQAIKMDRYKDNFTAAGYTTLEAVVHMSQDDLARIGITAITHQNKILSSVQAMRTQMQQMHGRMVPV
The target in assay [35] is Induced myeloid leukemia cell differentiation protein Mcl-1 (Homo sapiens, UniProt Q07820). Format: functional.
Sequence of Induced myeloid leukemia cell differentiation protein Mcl-1 (Q07820 whole entry): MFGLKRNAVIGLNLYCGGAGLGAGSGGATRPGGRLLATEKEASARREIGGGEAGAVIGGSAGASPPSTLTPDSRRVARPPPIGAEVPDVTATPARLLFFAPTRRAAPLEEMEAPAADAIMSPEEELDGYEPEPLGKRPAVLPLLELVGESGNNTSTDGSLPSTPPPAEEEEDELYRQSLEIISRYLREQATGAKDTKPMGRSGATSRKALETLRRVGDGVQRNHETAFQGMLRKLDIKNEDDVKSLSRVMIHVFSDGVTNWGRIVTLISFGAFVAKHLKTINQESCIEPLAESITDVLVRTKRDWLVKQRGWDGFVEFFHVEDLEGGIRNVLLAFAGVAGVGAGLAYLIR
Assay [36] has as its target Heat shock protein HSP 90-alpha (Homo sapiens, UniProt P07900). Format: functional, organism-based.

Sequence of Cytochrome P450 3A4 (P08684 whole entry): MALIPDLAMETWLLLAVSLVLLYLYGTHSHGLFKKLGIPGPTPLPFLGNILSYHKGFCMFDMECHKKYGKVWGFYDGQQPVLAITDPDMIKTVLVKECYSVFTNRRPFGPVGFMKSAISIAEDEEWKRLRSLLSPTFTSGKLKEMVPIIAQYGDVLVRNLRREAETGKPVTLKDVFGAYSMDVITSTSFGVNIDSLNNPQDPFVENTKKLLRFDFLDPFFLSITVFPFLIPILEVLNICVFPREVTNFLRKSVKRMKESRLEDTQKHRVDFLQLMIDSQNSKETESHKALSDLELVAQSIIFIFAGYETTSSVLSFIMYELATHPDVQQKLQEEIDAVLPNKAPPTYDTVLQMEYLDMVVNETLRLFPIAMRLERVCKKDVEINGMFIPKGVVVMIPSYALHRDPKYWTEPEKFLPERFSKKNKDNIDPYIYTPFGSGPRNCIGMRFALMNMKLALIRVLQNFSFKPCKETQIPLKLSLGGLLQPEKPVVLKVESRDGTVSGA

For the molecule `C[C@H](CO)N1C[C@H](C)[C@@H](CN(C)Cc2ccc(Oc3ccccc3)cc2)Oc2c(NC(=O)c3ccncc3)cccc2C1=O`, the IC50 – broadly, the midpoint of a concentration-inhibition curve – is 0.872 µM (inactive) in [1]; 17.9 µM (inactive) in assay [2]; > 20 µM (inactive) in assay [5]; 26.3 µM (inactive) in assay [6]; 0.0215 µM (active) in assay [7]; 3.73 µM (inactive) in assay [8]. For the same molecule, the AC50 (usually the midpoint of the concentration-response curve, whichever way the signal moves) in assay [3] is 0.000469 µM (active); in assay [4] it was 0.00152 µM (active).
For the molecule `COc1ccc(NC(=O)Nc2ccc3c(c2)CC(=O)N([C@H](C)CO)C[C@H](C)[C@@H](CN(C)Cc2ccc(C(=O)Nc4ccccc4N)cc2)O3)cc1`, the AC50 in assay [9] was 2.3 µM (active); in [10] it was > 100 µM (inactive); in [11], 2.22 µM (active); in assay [12], 1.5 µM (active); in [13], > 39 µM (inactive); in assay [14], 2.04 µM (active).
With `Cc1ccccc1C1C(C#N)=C2N=C(N)c3c(sc4c3CCCCC4)N2C2=C1C(=O)CC(C)(C)C2` (centres undefined), in assay [15], the IC50 is > 100 µM (active). In addition, the EC50 (as a rule, the concentration that produces a half-maximal response) in [16] is 1.52 µM (active); in assay [18] it was > 60 µM (inconclusive). In assay [17], the CC50 was 33.1 µM (active). The AC50 at Cytochrome P450 3A4 is 1.12 µM (inconclusive).
For `Cc1cc2nc3c(=O)[nH]c(=O)nc-3n(C[C@H](O)[C@H](O)[C@H](O)COP(=O)(O)OP(=O)(O)OC[C@H]3O[C@@H](n4cnc5c(N)ncnc54)[C@H](O)[C@H]3O)c2cc1C`, the IC50 in assay [19], in assay [20], in assay [21], in assay [22], in assay [23] and in assay [24] was > 20 µM (inactive) each time. Further, the IC50 in assay [25] and in [26] was > 20 µM (inactive) in each case.
Take `Cc1[nH]c2c(C(F)(F)F)cccc2c1CCN`: in assay [27], the EC50 is > 50 µM (not active).
Consider `N#CCN1CCN(CC(=O)Nc2cccc3ccccc23)CC1`, for which the 50% effective concentration (EC50) in assay [28] is listed as > 50 µM (not active).
Turning to `c1ccc2sc(C3CCCNC3)nc2c1` (centres undefined), the EC50 in assay [27] was > 50 µM (not active); in [29], 0.0093 µM (active).
With `Oc1[nH]c2ccccc2c1/C=N/c1ccc2c(c1)OCO2`, the EC50 with H4 is 1.25 µM (active). In [30], the IC50 is > 93.1 µM (not active).
As to `CCC(=O)N1CCC2(CC1)CN(Cc1cc(F)ccc1F)[C@H](CO)c1[nH]c3cc(OC)ccc3c12`, the concentration at half-maximal activity (AC50) in [9] is 1.83 µM (active); in [10] it was > 100 µM (inactive); in assay [11], 2.98 µM (active); in assay [12] it was 1.96 µM (active); in [14], 1.43 µM (active).
With `COc1ccc2c(c1)c1ncn(Cc3ccco3)c(=O)c1n2C`, the IC50 in assay [30] was 90 µM (not active).
In the case of `COc1ccc(N/N=C(\C=O)C(=O)c2cccs2)cc1`, the IC50 in assay [15] is > 100 µM (active). Moreover, the AC50 in [31] was 3.43 µM (active).
For `C[C@@H]1CN([C@H](C)CO)C(=O)c2cccc(NC(=O)c3ccncc3)c2O[C@H]1CN(C)Cc1ccc(Oc2ccccc2)cc1`, the AC50 in assay [32] was 0.08 µM (active); in assay [3], 0.0017 µM (active); in assay [4], 0.00521 µM (active). The IC50 is 0.82 µM (inactive) in [1]; 13.3 µM (inactive) in assay [2]; 0.03 µM (active) in [5]; 43.7 µM (inactive) in [6]; 0.031 µM (active) in assay [7]; 0.242 µM (active) in [8].
Turning to `COC(=O)c1ccccc1C(=O)OC` [DIMETHYL PHTHALATE], the IC50 in assay [19], in [20], in [21], in assay [22], in assay [23] and in assay [24] was > 20 µM (inactive) in each case. For the same molecule, the IC50 in assay [25] and in assay [26] was > 20 µM (inactive) throughout.
With `CCOC(=O)c1c(C)oc2c1c(C(c1cccnc1)N1CCOCC1)c(O)c1ccccc12` (centres undefined), the EC50 is 12.5 µM (active) in assay [33], 106 µM (active) in assay [34] and > 120 µM (not active) in the assay with H4. The IC50 is 3.58 µM (active) at Ephrin type-A receptor 4 and 1.17 µM (active) in [35]. Also, the AC50 in assay [36] was 8.43 µM (active).
